Experimental data as given in patent US10500194B2, “Covalent small molecule DCN1 inhibitors and therapeutic methods using the same” (THE REGENTS OF THE UNIVERSITY OF MICHIGAN, priority 2017, dated 2019).

Molecular target: DCN1 (Homo sapiens (Human), UniProt Q96GG9)
Test: Competitive FP binding assay
Settings: read-out: Binding affinity to DCN1 (IC50)
Description: The Fluorescence Polarization (FP) competitive binding assays were performed to accurately determine the binding affinities of our DCN1 inhibitors. A novel FAM labeled fluorescent probe compound (46) was designed and synthesized based on one of our potent small molecule DCN1 inhibitors. Equilibrium dissociation constants (Kd) values of 46 to both DCN1 and DCN2 proteins were determined from protein saturation experiments by monitoring the total FP values of mixtures composed with the fluorescent probe at a fixed concentration and proteins with increasing concentrations up to full saturation. Serial dilutions of proteins were mixed with 46 to a final volume of 200 μl in the assay buffer (100 mM phosphate buffer, pH=6.5, with 0.02% Tween-20 and 2% DMSO). Final probe concentration was 5 nM for both assays. Plates were incubated at room temperature for 30 minutes with gentle shaking to assure equilibrium. FP values in millipolarization units (mP) were measured using the Infinite M-1000 plate reader (Tecan U.S., Research Triangle Park, N.C.) in Microfluor 1 96-well, black, round-bottom plates (Thermo Scientific, Waltham, Mass.) at an excitation wavelength of 485 nm and an emission wavelength of 530 nm. Kd values of 46 were calculated by fitting the sigmoidal dose-dependent FP increases as a function of protein concentrations using Graphpad Prism 6.0 software (Graphpad Software, San Diego, Calif.).
Human DCN1 (residues 58-259) were cloned into a pDEST17 plasmid containing an N-terminal His6 tag. DCN2 (residues 62-259), DCN3 (residues 86-304), DCN4 (residues 102-292) and DCN5 (residues 47-237) were cloned into an N-terminal His6-TEV expression vector. Pure proteins were derived from the same expression and purification protocols. Plasmids were transformed into Rosetta2 cells, the cells were grown in Terrific Broth at 37° C. to an O.D.600>1.0 and induced with 0.4 mM Isopropyl β-D-1-thiogalactopyranoside overnight at 20° C. The pelleted cells were resuspended in lysis buffer containing 25 mM Tris-HCl, pH 7.5, 200 mM NaCl and protease inhibitors, sonicated and centrifuged at 34,000×g for 45 minutes to remove debris. Cleared lysate was incubated with Ni-NTA resin (Qiagen) prewashed with lysis buffer, for 1 hr at 4° C. The matrix was loaded into a column then washed with 25 mM Tris-HCl, pH 7.5, 200 mM NaCl and 10 mM imidazole. Protein was eluted with 25 mM Tris-HCl, pH 7.5, 200 mM NaCl and 300 mM imidazole, concentrated and applied to a Superdex 75 (GE Healthcare) column pre-equilibrated with 25 mM Tris pH 7.5, 200 mM NaCl and 1 mM DTT. For DCN2-5, the N-terminal His6 tag was removed prior to gel filtration. Tag removal was achieved through incubation with TEV protease during overnight dialysis against 25 mM Tris pH 7.5, 200 mM NaCl and 1 mM DTT and a second Ni-NTA column. DCN2-5 proteins were stored at −80° C. in 1 mg/mL fractions containing 5% glycerol. The uncleaved DCN1 protein was stored at −80° C. without glycerol.

DCN1, sequence (Q96GG9 58-259): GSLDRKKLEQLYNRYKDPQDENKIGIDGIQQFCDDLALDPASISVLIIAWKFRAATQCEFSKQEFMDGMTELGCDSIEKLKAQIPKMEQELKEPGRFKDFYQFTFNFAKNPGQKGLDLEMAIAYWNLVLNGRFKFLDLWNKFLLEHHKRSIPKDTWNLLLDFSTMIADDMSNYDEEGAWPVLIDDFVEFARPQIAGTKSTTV

SMILES	IC50
C=CC(=O)NC[C@@H](NC(=O)[C@H](Cc1nc2ccc(C(C)C)cc2s1)NC(=O)CC)C1CCCCC1 [Example 37, N—((S)-2-cyclohexyl-2-((S)-3-(6-isopropylbenzo[d]thiazol-2-yl)-2-propionamidopropanamido)ethyl)acrylamide]	< 0.2 µM
C=CC(=O)NC[C@H](Cc1ccccc1)NC(=O)[C@H](Cc1nc2ccc(Cl)cc2s1)NC(=O)CC [Example 1, N—((S)-2-((S)-3-(6-chlorobenzo[d]thiazol-2-yl)-2-propionamidopropanamido)-3-phenylpropyl)acrylamide]	0.205 µM
C=C(CN1CCOCC1)C(=O)NC[C@H](Cc1ccccc1)NC(=O)[C@H](Cc1cn2cc(Cl)ccc2n1)NC(=O)CC [Example 35, N—((S)-2-((S)-3-(6-chloroimidazo[1,2-a]pyridin-2-yl)-2-propionamidopropanamido)-3-phenylpropyl)-2-(morpholinomethyl)acrylamide]	< 0.3 µM
CCC(=O)N[C@@H](Cc1nc2ccc(Cl)cc2s1)C(=O)N[C@H](CNC(=O)C1=CCCN(C)C1)Cc1ccccc1 [Example 12, N—((S)-2-((S)-3-(6-chlorobenzo[d]thiazol-2-yl)-2-propionamidopropanamido)-3-phenylpropyl)-1-methyl-1,2,5,6-tetrahydropyridine-3-carboxamide]	0.292 µM
C=C(CN1CCOCC1)C(=O)NC[C@H](Cc1ccccc1)NC(=O)[C@H](Cc1nc2ccc(Cl)cc2s1)NC(=O)CC [Example 3, N—((S)-2-((S)-3-(6-chlorobenzo[d]thiazol-2-yl)-2-propionamidopropanamido)-3-phenylpropyl)-2-(morpholinomethyl)acrylamide]	0.156 µM
CCC(=O)N[C@@H](Cc1nc2ccc(Cl)cc2s1)C(=O)N[C@H](CNC(=O)/C=C/CN(C)C)Cc1ccccc1 [Example 2, (E)-N—((S)-2-((S)-3-(6-chlorobenzo[d]thiazol-2-yl)-2-propionamidopropanamido)-3-phenylpropyl)-4-(dimethylamino)but-2-enamide]	0.153 µM
CCC(=O)N[C@@H](Cc1nc2ccc(C(C)C)cc2s1)C(=O)N[C@H](CNC(=O)CCl)C1CCCCC1 [Example 38, (S)—N—((S)-2-(2-chloroacetamido)-1-cyclohexylethyl)-3-(6-isopropylbenzo[d]thiazol-2-yl)-2-propionamidopropanamide]	< 0.15 µM
C=C(CN1CCS(=O)(=O)CC1)C(=O)NC[C@@H](NC(=O)[C@H](Cc1nc2ccc(C(C)C)cc2s1)NC(=O)CC)C1CCCCC1 [Example 28, N—((S)-2-cyclohexyl-2-((S)-3-(6-isopropylbenzo[d]thiazol-2-yl)-2-propionamidopropanamido)ethyl)-2-((1,1-dioxidothiomorpholino)methyl)acrylamide]	< 0.15 µM
C=C(CN1CCCCC1)C(=O)NC[C@@H](NC(=O)[C@H](Cc1nc2ccc(C(C)C)cc2s1)NC(=O)CC)C1CCCCC1 [Example 23, N—((S)-2-cyclohexyl-2-((S)-3-(6-isopropylbenzo[d]thiazol-2-yl)-2-propionamidopropanamido)ethyl)-2-(piperidin-1-ylmethyl)acrylamide]	< 0.15 µM
C=C(CN1CCC1)C(=O)NC[C@@H](NC(=O)[C@H](Cc1nc2ccc(C(C)C)cc2s1)NC(=O)CC)C1CCCCC1 [Example 25, 2-(azetidin-1-ylmethyl)-N—((S)-2-cyclohexyl-2-((S)-3-(6-isopropylbenzo[d]thiazol-2-yl)-2-propionamidopropanamido)ethyl)acrylamide]	< 0.15 µM
C=C(CN1CCN(C)CC1)C(=O)NC[C@@H](NC(=O)[C@H](Cc1nc2ccc(C(C)C)cc2s1)NC(=O)CC)C1CCCCC1 [Example 27, N—((S)-2-cyclohexyl-2-((S)-3-(6-isopropylbenzo[d]thiazol-2-yl)-2-propionamidopropanamido)ethyl)-2-((4-methylpiperazin-1-yl)methyl)acrylamide]	< 0.15 µM
CCC(=O)N[C@@H](Cc1nc2ccc(Cl)cc2s1)C(=O)N[C@H](CNC(=O)CCl)Cc1ccccc1 [Example 20, (S)—N—((S)-1-(2-chloroacetamido)-3-phenylpropan-2-yl)-3-(6-chlorobenzo[d]thiazol-2-yl)-2-propionamidopropanamide]	0.36 µM

Other lines, results leading:

IC50	SMILES
< 0.15 µM	C=CC(=O)NC[C@H](Cc1ccncc1)NC(=O)[C@H](Cc1nc2ccc(C(C)C)cc2s1)NC(=O)CC [Example 31, N—((S)-2-((S)-3-(6-isopropylbenzo[d]thiazol-2-yl)-2-propionamidopropanamido)-3-(pyridin-4-yl)propyl)acrylamide]
< 0.15 µM	C=C(CN1CC(F)(F)C1)C(=O)NC[C@@H](NC(=O)[C@H](Cc1nc2ccc(C(C)C)cc2s1)NC(=O)CC)C1CCCCC1 [Example 26, N—((S)-2-cyclohexyl-2-((S)-3-(6-isopropylbenzo[d]thiazol-2-yl)-2-propionamidopropanamido)ethyl)-2-((3,3-difluoroazetidin-1-yl)methyl)acrylamide]
< 0.15 µM	C=C(CN1CCOCC1)C(=O)NC[C@H](Cc1ccc(F)cc1)NC(=O)[C@H](Cc1nc2ccc(C(C)C)cc2s1)NC(=O)CC [Example 36, N—((S)-3-(4-fluorophenyl)-2-((S)-3-(6-isopropylbenzo[d]thiazol-2-yl)-2-propionamidopropanamido)propyl)-2-(morpholinomethyl)acrylamide]
< 0.15 µM	C=CC(=O)NC[C@H](Cc1cccnc1)NC(=O)[C@H](Cc1nc2ccc(C(C)C)cc2s1)NC(=O)CC [Example 32, N—((S)-2-((S)-3-(6-isopropylbenzo[d]thiazol-2-yl)-2-propionamidopropanamido)-3-(pyridin-3-yl)propyl)acrylamide]
< 0.15 µM	C=C(CN1CCOCC1)C(=O)NC[C@H](Cc1cccnc1)NC(=O)[C@H](Cc1nc2ccc(C(C)C)cc2s1)NC(=O)CC [Example 34, N—((S)-2-((S)-3-(6-isopropylbenzo[d]thiazol-2-yl)-2-propionamidopropanamido)-3-(pyridin-3-yl)propyl)-2-(morpholinomethyl)acrylamide]
< 0.15 µM	C=CS(=O)(=O)NC[C@H](Cc1cccnc1)NC(=O)[C@H](Cc1nc2ccc(C(C)C)cc2s1)NC(=O)CC [Example 33, (S)-3-(6-isopropylbenzo[d]thiazol-2-yl)-2-propionamido-N—((S)-1-(pyridin-3-yl)-3-(vinylsulfonamido)propan-2-yl)propanamide]
0.0998 µM	C=C(CN1CCOCC1)C(=O)NC[C@H](Cc1ccccc1)NC(=O)[C@H](Cc1nc2ccc(CC)cc2s1)NC(=O)CC [Example 8, N—((S)-2-((S)-3-(6-ethylbenzo[d]thiazol-2-yl)-2-propionamidopropanamido)-3-phenylpropyl)-2-(morpholinomethyl)acrylamide]
< 0.15 µM	CCC(=O)N[C@@H](Cc1nc2ccc(C(C)C)cc2s1)C(=O)N[C@H](CNC(=O)/C=C/CN1CCOCC1)C1CCCCC1 [Example 39, (E)-N—((S)-2-cyclohexyl-2-((S)-3-(6-isopropylbenzo[d]thiazol-2-yl)-2-propionamidopropanamido)ethyl)-4-morpholinobut-2-enamide]
< 0.15 µM	C=C(CN1CCN(CCO)CC1)C(=O)NC[C@@H](NC(=O)[C@H](Cc1nc2ccc(C(C)C)cc2s1)NC(=O)CC)C1CCCCC1 [Example 29, N—((S)-2-cyclohexyl-2-((S)-3-(6-isopropylbenzo[d]thiazol-2-yl)-2-propionamidopropanamido)ethyl)-2-((4-(2-hydroxyethyl)piperazin-1-yl)methyl)acrylamide]
0.0807 µM	C=C(CN1CCOCC1)C(=O)NC[C@H](CC1CCCCC1)NC(=O)[C@H](Cc1nc2ccc(Cl)cc2s1)NC(=O)CC [Example 5, N—((S)-2-((S)-3-(6-chlorobenzo[d]thiazol-2-yl)-2-propionamidopropanamido)-3-cyclohexylpropyl)-2-(morpholinomethyl)acrylamide]
0.135 µM	C=C(CN1CCOCC1)C(=O)NC[C@@H](NC(=O)[C@H](Cc1nc2ccc(Cl)cc2s1)NC(=O)CC)C1CCCC1 [Example 6, N—((S)-2-((S)-3-(6-chlorobenzo[d]thiazol-2-yl)-2-propionamidopropanamido)-2-cyclopentylethyl)-2-(morpholinomethyl)acrylamide]
